Test results taken from PubChem BioAssay (NCI).
“And” between values parts separate entries of the source, which are not always exact repeats. Equal entries are not always repeated.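 All cell lines were grown in 96-well plates and treated with compound for 48 hours. At the GI50, growth is halved. TGI: total growth inhibition.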

Columns and labels:
Experiment in all cases: DTP human tumour cell line panel, 48 h
[1] = system: 786-0 renal
[2] = system: A498 renal
[3] = system: ACHN renal
[4] = system: HOP-92 NSCLC
[5] = system: MALME-3M melanoma
[6] = system: OVCAR-3 ovarian
[7] = system: OVCAR-4 ovarian
[8] = system: PC-3 prostate
[9] = system: RXF 393 renal
[10] = system: UACC-62 melanoma

Compound `COc1ccc2c(c1)OCC1c3cc(OC)c4ccccc4c3OC21` (stereo not given) has a GI50 [1] of 26.1 µM, a TGI [1] of over 100 µM and a GI50 [2] of 25 µM. For the same compound, the TGI [2] was over 100 µM, the GI50 [3] was 27.4 µM and the TGI [3] was over 100 µM. For the same compound, the GI50 [4] was 22.3 µM, the TGI [4] was over 100 µM and the GI50 [5] was 5.01 µM. It also gave a TGI [5] of over 100 µM, a GI50 [6] of 1.5 µM and a TGI [6] of 4.08 µM. It also gave a GI50 [7] of 16.5 µM, a TGI [7] of over 100 µM and a GI50 [8] of 8.82 µM. For the same compound, the TGI [8] was over 100 µM, the GI50 [9] was 9.41 µM and the TGI [9] was 46 µM. For the same compound, the GI50 [10] was 3.05 µM and the TGI [10] was 18.9 µM.
`C=C(C)COc1ccc2c(c1)CCC1C2CCC2(C)C(=O)/C(=N/O)CC12` (stereo not given) gave a TGI [1] of 13 µM, a TGI [2] of 24.3 µM and a TGI [3] of 15.2 µM. For the same compound, the TGI [4] was 10.4 µM, the TGI [5] was 29.1 µM and the TGI [6] was 14.6 µM. The TGI [7] was 9.69 µM, the TGI [8] was 10.5 µM and the TGI [9] was 6.78 µM. It also gave a TGI [10] of 28.5 µM.
For `C[n+]1cccc(NC(=O)c2ccc3ccc4ccc(C(=O)Nc5ccc[n+](C)c5)nc4c3n2)c1`, the GI50 [1] was 8.99 µM, the TGI [1] was over 100 µM and the GI50 [2] was 7.14 µM. It also gave a TGI [2] of over 28 µM, a GI50 [3] of 4.75 µM and a TGI [3] of over 100 µM. The GI50 [4] was 7.15 µM, the TGI [4] was over 65.1 µM and the GI50 [5] was over 89.1 µM. The TGI [5] was over 100 µM, the GI50 [6] was 4.3 µM and the TGI [6] was over 100 µM. For the same compound, the GI50 [7] was 7.37 µM, the TGI [7] was over 100 µM and the GI50 [8] was 6.21 µM. For the same compound, the TGI [8] was over 100 µM, the GI50 [9] was 1.98 µM and the TGI [9] was 4.75 µM. For the same compound, the GI50 [10] was 0.357 µM and the TGI [10] was 2.05 µM.
In the case of `COc1cc(/C=C2\CCC/C(=C\c3cc(CN4CCCC4)c(O)c(OC)c3)C2=O)cc(CN2CCCC2)c1O`, the GI50 [1] is reported as 3.15 µM, the TGI [1] is reported as 14.7 µM and the GI50 [2] is reported as 2.94 µM. The TGI [2] was 8.54 µM, the GI50 [3] was 1.71 µM and the TGI [3] was 3.43 µM. For the same compound, the GI50 [4] was 2.11 µM, the TGI [4] was 11.8 µM and the GI50 [5] was 2.73 µM. The TGI [5] was 6.41 µM, the GI50 [6] was 3.89 µM and the TGI [6] was 13.8 µM. It also gave a GI50 [7] of 5.93 µM, a TGI [7] of over 100 µM and a GI50 [8] of 3.88 µM. The TGI [8] was 16.6 µM, the GI50 [9] was 1.72 µM and the TGI [9] was 5.68 µM. For the same compound, the GI50 [10] was 3.45 µM and the TGI [10] was 12.9 µM.
Compound `Cc1[nH]c(C(=O)Nc2cccc(OC3CCNCC3)c2)c(Cl)c1Cl` has a GI50 [1] of 1.83 µM, a TGI [1] of 3.44 µM and a GI50 [2] of 1.89 µM. The TGI [2] was 4.6 µM, the GI50 [3] was 1.75 µM and the TGI [3] was 3.17 µM. For the same compound, the GI50 [4] was 1.32 µM, the TGI [4] was 4 µM and the GI50 [5] was 1.6 µM. For the same compound, the TGI [5] was 3.22 µM, the GI50 [6] was 1.97 µM and the TGI [6] was 4.01 µM. For the same compound, the GI50 [7] was 2.6 µM, the TGI [7] was 6.76 µM and the GI50 [8] was 1.69 µM. For the same compound, the TGI [8] was 3.36 µM, the GI50 [9] was 1.74 µM and the TGI [9] was 3.46 µM. The GI50 [10] was 1.81 µM and the TGI [10] was 3.45 µM.
In the case of `CCN1C(=O)/C(=c2\sc3n(c2=O)C2C(NN=3)N(CC)C(=O)N2CC)c2ccccc21` (stereo not given), the GI50 [1] is reported as 0.663 µM, the TGI [1] is reported as 16.9 µM and the GI50 [2] is reported as 0.181 µM. For the same compound, the TGI [2] was 0.697 µM, the GI50 [3] was 0.726 µM and the TGI [3] was over 47.9 µM. For the same compound, the GI50 [4] was 1.13 µM, the TGI [4] was 25.6 µM and the GI50 [5] was 0.596 µM. The TGI [5] was over 100 µM, the GI50 [6] was 0.323 µM and the TGI [6] was 3.32 µM. For the same compound, the GI50 [7] was 5.48 µM, the TGI [7] was over 100 µM and the GI50 [8] was 0.46 µM. It also gave a TGI [8] of over 100 µM, a GI50 [9] of 0.279 µM and a TGI [9] of 0.814 µM. The GI50 [10] was 0.426 µM and the TGI [10] was 30 µM.
`O=C(CCN1CCCCC1)c1csc2ccccc12` gave a TGI [1] of over 100 µM, a TGI [2] of over 100 µM and a TGI [3] of over 100 µM. For the same compound, the TGI [4] was over 100 µM, the TGI [5] was over 100 µM and the TGI [6] was over 100 µM. For the same compound, the TGI [7] was over 100 µM, the TGI [8] was over 100 µM and the TGI [9] was over 100 µM. The TGI [10] was over 100 µM.
`COc1ccc2[nH]c(C(=O)OCc3ccc4c(Br)cc(Br)c(O)c4n3)cc2c1` showed a GI50 [1] of 1.23 µM, a TGI [1] of 2.61 µM and a GI50 [2] of 1.8 µM. It also gave a TGI [2] of 3.31 µM, a GI50 [3] of 0.343 µM and a TGI [3] of 1.35 µM. The GI50 [4] was 0.352 µM, the TGI [4] was 1.75 µM and the GI50 [5] was 1.45 µM. It also gave a TGI [5] of 2.85 µM, a GI50 [6] of 0.447 µM and a TGI [6] of 1.56 µM. It also gave a GI50 [7] of 0.895 µM, a TGI [7] of 2.25 µM and a GI50 [8] of 0.73 µM. For the same compound, the TGI [8] was 2.27 µM, the GI50 [9] was 0.486 µM and the TGI [9] was 1.8 µM. The GI50 [10] was 1.06 µM and the TGI [10] was 2.29 µM.
For `C=C(C(=O)c1ccccc1)C(NC(C)(C)C)c1ccccc1` (stereo not given), the GI50 [1] was 2.06 µM, the TGI [1] was 4.08 µM and the GI50 [2] was 1.7 µM. It also gave a TGI [2] of 3.25 µM, a GI50 [3] of 1.59 µM and a TGI [3] of 4.51 µM. The GI50 [4] was 2.38 µM, the TGI [4] was 6.83 µM and the GI50 [5] was 1.91 µM. The TGI [5] was 4.33 µM, the GI50 [6] was 1.3 µM and the TGI [6] was 3.24 µM. The GI50 [7] was 4.72 µM, the TGI [7] was 17.1 µM and the GI50 [8] was 3.26 µM. The TGI [8] was 13 µM, the GI50 [9] was 1.21 µM and the TGI [9] was 2.69 µM. The GI50 [10] was 1.54 µM and the TGI [10] was 4.02 µM.
In the case of `Cc1c(O)cccc1C(=O)N[C@@H](CSc1ccccc1)[C@H](O)CN1C[C@H]2CCCC[C@H]2C[C@H]1C(=O)NC(C)(C)C`, the GI50 [1] is reported as 3.8 µM and 5.87 µM, the TGI [1] is reported as 16.4 µM and 16 µM and the GI50 [2] is reported as 10.5 µM and 4.26 µM. The TGI [2] was 24.9 µM and 15.3 µM, the GI50 [3] was 3.02 µM and 5.69 µM and the TGI [3] was 13.1 µM and 17.1 µM. The GI50 [4] was 2.47 µM and 6.25 µM, the TGI [4] was 7.62 µM and 25.2 µM and the GI50 [5] was 2.13 µM and 7.03 µM. For the same compound, the TGI [5] was 8.41 µM and 18.6 µM, the GI50 [6] was 2.62 µM and 5.24 µM and the TGI [6] was 9.46 µM and 16.2 µM. For the same compound, the GI50 [7] was 5.97 µM and 5.96 µM, the TGI [7] was > 37.6 µM and 23.4 µM and the GI50 [8] was 2.95 µM and 3.94 µM. For the same compound, the TGI [8] was 11.1 µM and > 35.1 µM, the GI50 [9] was 1.96 µM and 2.91 µM and the TGI [9] was 4.26 µM and 6.37 µM. The GI50 [10] was 5.79 µM and 5.8 µM and the TGI [10] was 18.8 µM and 17.6 µM.
`CN1C(=O)C(N=Nc2ccc([N+](=O)[O-])cc2)SC1=S` (stereo not given) was tested, and the GI50 [1] was 8.12 µM and 10.7 µM, the TGI [1] was 80 µM and 58.2 µM and the GI50 [2] was 4.1 µM and 4.16 µM. The TGI [2] was 18.3 µM and 51 µM, the GI50 [3] was 3.19 µM and 9.51 µM and the TGI [3] was 99 µM and 62.4 µM. The GI50 [4] was 1.71 µM, the TGI [4] was 12.3 µM and the GI50 [5] was 3.26 µM and 18.5 µM. The TGI [5] was 19.5 µM and > 100 µM, the GI50 [6] was 2.7 µM and 10.9 µM and the TGI [6] was 12.9 µM and 71.9 µM. For the same compound, the GI50 [7] was 6.35 µM and 9.5 µM, the TGI [7] was over 100 µM and the GI50 [8] was 1.6 µM and 4.65 µM. For the same compound, the TGI [8] was over 100 µM, the GI50 [9] was 16.6 µM and 12.5 µM and the TGI [9] was 97.4 µM and 77.5 µM. For the same compound, the GI50 [10] was 3.29 µM and 2.85 µM and the TGI [10] was over 100 µM.
With `CCOC(=O)C1=C(C)NC2SC(=O)/C(=C\c3cccc(Cl)c3)N2C1c1ccccc1` (stereo not given) the GI50 [1] was over 100 µM, the TGI [1] was over 100 µM and the GI50 [2] was over 100 µM. It also gave a TGI [2] of over 100 µM, a GI50 [3] of over 100 µM and a TGI [3] of over 100 µM. The GI50 [4] was over 100 µM, the TGI [4] was over 100 µM and the GI50 [5] was 28.3 µM. For the same compound, the TGI [5] was over 100 µM, the GI50 [6] was over 100 µM and the TGI [6] was over 100 µM. For the same compound, the GI50 [7] was 84.3 µM, the TGI [7] was over 100 µM and the GI50 [8] was over 100 µM. For the same compound, the TGI [8] was over 100 µM, the GI50 [9] was over 100 µM and the TGI [9] was over 100 µM. It also gave a GI50 [10] of over 100 µM and a TGI [10] of over 100 µM.
Work on `O=C1/C(=C/c2ccc(Cl)cc2)CN(Cc2cn(CCCNc3ccnc4cc(Cl)ccc34)nn2)C/C1=C\c1ccc(Cl)cc1` yielded a GI50 [1] of 0.754 µM, a TGI [1] of 2.06 µM and a GI50 [2] of 1.23 µM. For the same compound, the TGI [2] was 2.53 µM, the GI50 [3] was 1.45 µM and the TGI [3] was 2.84 µM. It also gave a GI50 [4] of 1.46 µM, a TGI [4] of 3.18 µM and a GI50 [5] of 1.71 µM. It also gave a TGI [5] of 3.28 µM, a GI50 [6] of 0.56 µM and a TGI [6] of 1.85 µM. For the same compound, the GI50 [7] was 0.5 µM, the TGI [7] was 2.38 µM and the GI50 [8] was 0.391 µM. The TGI [8] was 1.59 µM, the GI50 [9] was 1.65 µM and the TGI [9] was 3.15 µM. The GI50 [10] was 1.77 µM and the TGI [10] was 3.35 µM.
